Key:
Assay in all cases: Test B pre-/postemergence plant response
Assay type in all cases: in vivo
[1] = test system: lambsquarters (Chenopodium album)
In short: (§1)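 Visual injury, 0–100 scale (100 = complete control), rated against controls after 13 to 15 days in greenhouse. Pre-emergence: seeds in loam/sand soil, treated at planting. Post-emergence: 1- to 4-leaf plants (2 to 18 cm) in peat/vermiculite medium. Compounds formulated in non-phytotoxic solvent with surfactant.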

[2] = test system: johnsongrass (Sorghum halepense)
In short: as §1

[3] = test system: bermudagrass (Cynodon dactylon)
In short: as §1

[4] = test system: Surinam grass (Brachiaria decumbens)
In short: as §1

[5] = test system: large crabgrass (Digitaria sanguinalis)
In short: as §1

[6] = test system: woolly cupgrass (Eriochloa villosa)
In short: as §1

[7] = test system: yellow nutsedge (Cyperus esculentus)
In short: as §1

[8] = test system: kochia (Kochia scoparia)
In short: as §1

[9] = test system: corn (Zea mays)
In short: as §1

[10] = test system: Italian ryegrass (Lolium multiflorum)
In short: as §1

[11] = test system: ragweed (common ragweed, Ambrosia elatior); details: Preemergence
In short: as §1

[12] = test system: blackgrass (Alopecurus myosuroides)
In short: as §1

[13] = test system: giant foxtail (Setaria faberii)
In short: as §1

[14] = test system: downy bromegrass (Bromus tectorum)
In short: as §1

[15] = test system: velvetleaf (Abutilon theophrasti)
In short: as §1

[16] = test system: green foxtail (Setaria viridis)
In short: as §1

[17] = test system: goosegrass (Eleusine indica)
In short: as §1

[18] = Postemergence, 31 g ai/ha, 0 to 100 scale (0 no effect, 100 complete control)
[19] = Postemergence, 125 g ai/ha, scale 0 to 100 (0 no effect, 100 complete control)
[20] = Postemergence, 250 g ai/ha, scale 0 to 100 (0 no effect, 100 complete control), 13 to 15 days
[21] = Postemergence, 62 g ai/ha, scale 0 to 100 (0 no effect, 100 complete control)
[22] = Preemergence, 31 g ai/ha, scale 0 to 100 (0 no effect, 100 complete control)
[23] = Preemergence, 62 g ai/ha, scale 0 to 100, 0 no effect, 100 complete control
[24] = Preemergence, 125 g ai/ha, scale 0 to 100, 0 no effect, 100 complete control
[25] = Preemergence, 250 g ai/ha, 0 to 100 scale

Q: For CCCCn1c(C2CC2)ncc(C(=O)C2=C(O)CCCC2=O)c1=O [Compound 193], which “Plant response rating, Lambsquarters” value [1, 18] is on record?
A: 98

Q: And the “Plant response rating, Lambsquarters” value [1, 19]?
A: 98

Q: What about the “Plant response rating, Lambsquarters” value [1, 20] of the same compound?
A: 100

Q: What about the “Plant response rating, Lambsquarters” value [1, 21] of the same compound?
A: 98

Q: And the “Plant response rating, Lambsquarters” value [1, 22]?
A: 100

Q: And the “Plant response rating, Lambsquarters” value [1, 23]?
A: 100

Q: What about the “Plant response rating, Lambsquarters” value [1, 24] of the same compound?
A: 100

Q: What about the “Lambsquarters plant response rating” value [1, 25] of the same compound?
A: 100

Q: And the “Plant response rating, Johnsongrass” value [2, 18]?
A: 50

Q: And the “Plant response rating, Johnsongrass” value [2, 19]?
A: 70

Q: And the “Plant response rating, Johnsongrass” value [2, 20]?
A: 80

Q: What about the “Plant response rating, Johnsongrass” value [2, 21] of the same compound?
A: 65

Q: What about the “Plant response rating, Johnsongrass” value [2, 22] of the same compound?
A: 0

Q: And the “Plant response rating, Johnsongrass” value [2, 23]?
A: 0

Q: And the “Plant response rating, Johnsongrass” value [2, 24]?
A: 15

Q: And the “Johnsongrass plant response rating” value [2, 25]?
A: 60

Q: And the “Plant response rating, Bermudagrass” value [3, 18]?
A: 95

Q: What about the “Plant response rating, Bermudagrass” value [3, 19] of the same compound?
A: 100

Q: And the “Plant response rating, Bermudagrass” value [3, 20]?
A: 100

Q: What about the “Plant response rating, Bermudagrass” value [3, 21] of the same compound?
A: 100

Q: And the “Plant response rating, Bermudagrass” value [3, 22]?
A: 75

Q: What about the “Plant response rating, Bermudagrass” value [3, 23] of the same compound?
A: 95

Q: What about the “Plant response rating, Bermudagrass” value [3, 24] of the same compound?
A: 95

Q: And the “Bermudagrass plant response rating” value ([3]; Preemergence, 250 g ai/ha, 0 to 100 scale, 0 no effect, 100 complete control)?
A: 98

Q: And the “Plant response rating, Surinam Grass” value [4, 18]?
A: 65

Q: And the “Plant response rating, Surinam Grass” value [4, 20]?
A: 95

Q: And the “Plant response rating, Surinam Grass” value [4, 21]?
A: 65

Q: What about the “Plant response rating, Surinam Grass” value [4, 22] of the same compound?
A: 0

Q: And the “Plant response rating, Surinam Grass” value [4, 23]?
A: 15

Q: What about the “Plant response rating, Surinam Grass” value [4, 24] of the same compound?
A: 30

Q: And the “Surinam Grass plant response rating” value [4, 25]?
A: 45

Q: What about the “Plant response rating, Crabgrass, Large” value [5, 18] of the same compound?
A: 75

Q: What about the “Plant response rating, Crabgrass, Large” value [5, 19] of the same compound?
A: 98

Q: What about the “Plant response rating, Crabgrass, Large” value [5, 20] of the same compound?
A: 100

Q: And the “Plant response rating, Crabgrass, Large” value [5, 21]?
A: 90

Q: What about the “Plant response rating, Crabgrass, Large” value [5, 22] of the same compound?
A: 100

Q: What about the “Plant response rating, Crabgrass, Large” value [5, 23] of the same compound?
A: 100

Q: What about the “Plant response rating, Crabgrass, Large” value [5, 24] of the same compound?
A: 100

Q: And the “Crabgrass, Large plant response rating” value [5, 25]?
A: 100

Q: And the “Plant response rating, Cupgrass, Woolly” value [6, 18]?
A: 75

Q: What about the “Plant response rating, Cupgrass, Woolly” value [6, 19] of the same compound?
A: 95

Q: And the “Plant response rating, Cupgrass, Woolly” value [6, 20]?
A: 98

Q: And the “Plant response rating, Cupgrass, Woolly” value [6, 21]?
A: 85

Q: And the “Plant response rating, Cupgrass, Woolly” value [6, 22]?
A: 10

Q: And the “Plant response rating, Cupgrass, Woolly” value [6, 23]?
A: 70

Q: And the “Plant response rating, Cupgrass, Woolly” value [6, 24]?
A: 80

Q: And the “Cupgrass, Woolly plant response rating” value [6, 25]?
A: 90

Q: And the “Plant response rating, Nutsedge, Yellow” value [7, 18]?
A: 60

Q: What about the “Plant response rating, Nutsedge, Yellow” value [7, 19] of the same compound?
A: 75

Q: What about the “Plant response rating, Nutsedge, Yellow” value [7, 20] of the same compound?
A: 75

Q: And the “Plant response rating, Nutsedge, Yellow” value [7, 21]?
A: 65

Q: And the “Plant response rating, Nutsedge, Yellow” value [7, 22]?
A: 10

Q: What about the “Plant response rating, Nutsedge, Yellow” value [7, 23] of the same compound?
A: 65

Q: And the “Plant response rating, Nutsedge, Yellow” value [7, 24]?
A: 70

Q: And the “Nutsedge, Yellow plant response rating” value [7, 25]?
A: 90

Q: And the “Plant response rating, Kochia” value [8, 18]?
A: 20

Q: What about the “Plant response rating, Kochia” value [8, 19] of the same compound?
A: 100

Q: What about the “Plant response rating, Kochia” value [8, 20] of the same compound?
A: 100

Q: And the “Plant response rating, Kochia” value [8, 21]?
A: 80

Q: And the “Plant response rating, Kochia” value [8, 22]?
A: 20

Q: And the “Plant response rating, Kochia” value [8, 23]?
A: 70

Q: And the “Plant response rating, Kochia” value [8, 24]?
A: 80

Q: What about the “Kochia plant response rating” value [8, 25] of the same compound?
A: 90

Q: And the “Plant response rating, Corn” value [9, 18]?
A: 0

Q: And the “Plant response rating, Corn” value [9, 19]?
A: 40

Q: And the “Plant response rating, Corn” value [9, 20]?
A: 60

Q: And the “Plant response rating, Corn” value [9, 21]?
A: 15

Q: What about the “Plant response rating, Corn” value [9, 22] of the same compound?
A: 0

Q: And the “Plant response rating, Corn” value [9, 23]?
A: 0

Q: What about the “Plant response rating, Corn” value [9, 24] of the same compound?
A: 5

Q: And the “Corn plant response rating” value [9, 25]?
A: 5

Q: What about the “Plant response rating, Ryegrass, Italian” value [10, 18] of the same compound?
A: 5

Q: And the “Plant response rating, Ryegrass, Italian” value [10, 20]?
A: 45

Q: And the “Plant response rating, Ryegrass, Italian” value [10, 21]?
A: 40

Q: And the “Plant response rating, Ryegrass, Italian” value [10, 22]?
A: 0

Q: And the “Plant response rating, Ryegrass, Italian” value [10, 23]?
A: 0

Q: And the “Plant response rating, Ryegrass, Italian” value [10, 24]?
A: 25

Q: What about the “Ryegrass, Italian plant response rating” value [10, 25] of the same compound?
A: 45

Q: And the “Plant response rating, Ragweed” value ([11]; 31 g ai/ha, scale 0 to 100 (0 no effect, 100 complete control))?
A: 100

Q: What about the “Plant response rating, Ragweed” value ([11]; 62 g ai/ha, scale 0 to 100, 0 no effect, 100 complete control) of the same compound?
A: 100

Q: And the “Plant response rating, Ragweed” value ([11]; 125 g ai/ha, scale 0 to 100, 0 no effect, 100 complete control)?
A: 100

Q: What about the “Ragweed plant response rating” value ([11]; 250 g ai/ha, 0 to 100 scale) of the same compound?
A: 100

Q: What about the “Plant response rating, Blackgrass” value [12, 18] of the same compound?
A: 10

Q: What about the “Plant response rating, Blackgrass” value [12, 19] of the same compound?
A: 40

Q: And the “Plant response rating, Blackgrass” value [12, 20]?
A: 60

Q: What about the “Plant response rating, Blackgrass” value [12, 21] of the same compound?
A: 15

Q: And the “Plant response rating, Blackgrass” value [12, 22]?
A: 0

Q: And the “Plant response rating, Blackgrass” value [12, 23]?
A: 0

Q: What about the “Plant response rating, Blackgrass” value [12, 24] of the same compound?
A: 30

Q: And the “Blackgrass plant response rating” value [12, 25]?
A: 70

Q: And the “Plant response rating, Foxtail, Giant” value [13, 18]?
A: 75

Q: What about the “Plant response rating, Foxtail, Giant” value [13, 19] of the same compound?
A: 95

Q: What about the “Plant response rating, Foxtail, Giant” value [13, 20] of the same compound?
A: 100

Q: What about the “Plant response rating, Foxtail, Giant” value [13, 21] of the same compound?
A: 85

Q: What about the “Plant response rating, Foxtail, Giant” value [13, 22] of the same compound?
A: 0

Q: What about the “Plant response rating, Foxtail, Giant” value [13, 23] of the same compound?
A: 65

Q: And the “Plant response rating, Foxtail, Giant” value [13, 24]?
A: 70

Q: And the “Foxtail, Giant plant response rating” value [13, 25]?
A: 80

Q: What about the “Plant response rating, Bromegrass, Downy” value [14, 18] of the same compound?
A: 10

Q: What about the “Plant response rating, Bromegrass, Downy” value [14, 19] of the same compound?
A: 40

Q: What about the “Plant response rating, Bromegrass, Downy” value [14, 20] of the same compound?
A: 85

Q: What about the “Plant response rating, Bromegrass, Downy” value [14, 21] of the same compound?
A: 30

Q: And the “Plant response rating, Bromegrass, Downy” value [14, 22]?
A: 0

Q: And the “Plant response rating, Bromegrass, Downy” value [14, 23]?
A: 5

Q: And the “Plant response rating, Bromegrass, Downy” value [14, 24]?
A: 5

Q: What about the “Bromegrass, Downy plant response rating” value [14, 25] of the same compound?
A: 50

Q: What about the “Plant response rating, Velvetleaf” value [15, 18] of the same compound?
A: 90

Q: What about the “Plant response rating, Velvetleaf” value [15, 20] of the same compound?
A: 100

Q: And the “Plant response rating, Velvetleaf” value [15, 21]?
A: 100

Q: What about the “Plant response rating, Velvetleaf” value [15, 22] of the same compound?
A: 85

Q: And the “Plant response rating, Velvetleaf” value [15, 23]?
A: 100

Q: And the “Plant response rating, Velvetleaf” value [15, 24]?
A: 100

Q: And the “Velvetleaf plant response rating” value [15, 25]?
A: 100

Q: What about the “Plant response rating, Foxtail, Green” value [16, 18] of the same compound?
A: 40

Q: What about the “Plant response rating, Foxtail, Green” value [16, 19] of the same compound?
A: 60

Q: What about the “Plant response rating, Foxtail, Green” value [16, 20] of the same compound?
A: 80

Q: What about the “Plant response rating, Foxtail, Green” value [16, 21] of the same compound?
A: 50

Q: What about the “Plant response rating, Foxtail, Green” value [16, 22] of the same compound?
A: 5

Q: What about the “Plant response rating, Foxtail, Green” value [16, 23] of the same compound?
A: 50

Q: And the “Plant response rating, Foxtail, Green” value [16, 24]?
A: 50

Q: And the “Foxtail, Green plant response rating” value [16, 25]?
A: 98

Q: What about the “Plant response rating, Goosegrass” value [17, 18] of the same compound?
A: 85

Q: What about the “Plant response rating, Goosegrass” value [17, 19] of the same compound?
A: 98

Q: What about the “Plant response rating, Goosegrass” value [17, 20] of the same compound?
A: 100

Q: What about the “Plant response rating, Goosegrass” value [17, 21] of the same compound?
A: 95

Q: And the “Plant response rating, Goosegrass” value [17, 22]?
A: 98

Q: What about the “Plant response rating, Goosegrass” value [17, 23] of the same compound?
A: 100

Q: What about the “Plant response rating, Goosegrass” value [17, 24] of the same compound?
A: 100

Q: What about the “Goosegrass plant response rating” value [17, 25] of the same compound?
A: 100

Reference: US8952024B2, “Herbicidal pyrimidone derivatives” (E I du Pont de Nemours and Company, priority 2009, dated 2015)
